Test results: paper PMC8704606, “The Artemiside-Artemisox-Artemisone-M1 Tetrad: Efficacies against Blood Stage P. falciparum Parasites, DMPK Properties, and the Case for Artemiside” (Pharmaceutics, 2021)
Where two headings read alike, the source gives them in different places.

Legend:
[1] = Pharmacokinetics and metabolism after iv and po administration; type: in vivo; conditions: for half-life: mean ± SD, read-out: t½ (converted); for MRT last: read-out: MRT0-last; for AUC(0-t): up to 7 h
Protocol: The plasma concentration-time profiles of the parent compounds and metabolites after administration iv and po to male C57/BL6 mice are presented in Figure 2, Figure 3 and Figure 4. Artemiside was quantifiable up to 24 h in all mice dosed iv and up to 7 h po (lower limit of quantitation LLOQ = 1.6 ng/mL or 0.004 μM) (Figure 2). […] For both artemiside and artemisox, the metabolite artemisone was quantifiable up to 3 h in both the po and iv groups (Figure 2 and Figure 3). Thereby it is confirmed that artemiside is rapidly converted via artemisox into artemisone. Artemisone itself was quantifiable up to three hours post dose (Figure 4). The mean circulating concentrations for the compounds and their metabolites are presented in Table S3a–f in the Supplementary Material 1. The metabolite M1 was also detected upon administration of artemiside, artemisox, and artemisone, but it was not quantified here; chromatograms indicating the presence of M1 are illustrated in Figure S3a–c in the Supplementary Material 1. In addition, the plasma concentration-time curves for artemiside and its metabolites artemisone and M1 following iv and po dosing in the same murine model are presented and discussed in detail elsewhere (cf. Figure 4 in reference).
All work was conducted with prior approval of the animal ethics committee of the University of Cape Town in accordance with the South African National Standards for the Care and Use of Animals for Scientific Purposes and guidelines from the South African Department of Health. The requirements and methods for the pharmacokinetics in vivo involving po and iv drug administration, sample extraction, analyses of samples by LC-MS/MS, and data analyses are described elsewhere. For the animal experiments and formulations, the compounds were dissolved in a 10:60:30 mixture of N,N-dimethylacetamide-polypropylene glycol-polyethylene glycol for intravenous dosing (iv) at 5 mg/kg. For the oral dose (po), compounds were individually dosed as a suspension in 0.5% (w/v) hydroxypropylmethylcellulose in water with 0.2% Tween80 at 50 mg/kg to male C57/BL6 mice (n = 3 for each group). For PK sampling, blood samples were collected at predetermined times (0.08, 0.25, 0.5, 1, 3, 5, 7, and 24 h) for both po and iv dosing via tail bleeding into heparinized tubes, centrifuged, and the plasma samples were stored at −80 °C until extraction. For preparation of samples, the frozen plasma samples were thawed and 15 μL was extracted by liquid–liquid extraction using a universal buffer (pH8) containing 10 ng/mL of the internal standard and ethyl acetate, and the extract was vortexed and centrifuged. Calibration standards and quality controls were extracted following the same procedure. Supernatants were dried down, reconstituted, and injected onto the column for LC-MS/MS analysis using an AB SCIEX 5500 QTRAP instrument coupled to an Agilent 1260 HPLC detection system as previously described.

[2] = Cytotoxicity (LDH assay) against HepG2 cells; type: cell-based; conditions: human, HepG2 cells (hepatocellular carcinoma)
Protocol: Cytotoxicity against mammalian hepatocellular carcinoma cells (HepG2 cells) was determined using the lactate dehydrogenase assay (LDH, Biovision Inc., Milpitas, CA, USA). […] Compound working solutions were prepared from 10 mM stock solutions (100% DMSO) in complete DMEM to a final DMSO (Sigma-Aldrich) conc. of <0.1% (vol/vol). […] Data analysis was performed using GraphPad Prism (version 6) software.

[3] = male, C57/BL6, mouse, plasma, iv 5 mg/kg, parent drug
[4] = male, C57/BL6, mouse, plasma, po 50 mg/kg, parent drug

## C[C@H]1[C@H](N2CC[S+]([O-])CC2)O[C@@H]2O[C@@]3(C)CC[C@H]4[C@H](C)CC[C@@H]1[C@@]24OO3 [Artemisox 6, Artemisox]
[1]; 7 h after iv 5 mg/kg artemisox 6
  Mean iv circulating concentration: blq
[1]; 24 h after iv 5 mg/kg artemisox 6
  Mean iv circulating concentration: blq
[1]; 24 h after po 50 mg/kg artemiside 5
  Mean po circulating concentration: blq
[1]; 24 h after po 50 mg/kg artemisox 6
  Mean po circulating concentration: blq
[1]; iv group, parent drug, LLOQ 1.6 ng/mL or 0.004 μM for artemiside
  quantifiable/detectable in plasma up to: up to 5 h
[1]; male, C57/BL6, mouse, plasma, iv, 5 mg/kg, 0.08 h after iv 5 mg/kg artemiside 5, read-out: Mean iv circulating concentration
  concentration at 0.08 h: 1930 nM
[1]; male, C57/BL6, mouse, plasma, iv, 5 mg/kg, 0.08 h after iv 5 mg/kg artemisox 6, read-out: Mean iv circulating concentration
  concentration at 0.08 h: 1900 nM
[1]; male, C57/BL6, mouse, plasma, iv, 5 mg/kg, 0.25 h after iv 5 mg/kg artemiside 5, read-out: Mean iv circulating concentration
  concentration at 0.25 h: 1820 nM
[1]; male, C57/BL6, mouse, plasma, iv, 5 mg/kg, 0.25 h after iv 5 mg/kg artemisox 6, read-out: Mean iv circulating concentration
  concentration at 0.25 h: 2420 nM
[1]; male, C57/BL6, mouse, plasma, iv, 5 mg/kg, 0.5 h after iv 5 mg/kg artemiside 5, read-out: Mean iv circulating concentration
  concentration at 0.5 h: 1380 nM
[1]; male, C57/BL6, mouse, plasma, iv, 5 mg/kg, 0.5 h after iv 5 mg/kg artemisox 6, read-out: Mean iv circulating concentration
  concentration at 0.5 h: 1920 nM
[1]; male, C57/BL6, mouse, plasma, iv, 5 mg/kg, 1 h after iv 5 mg/kg artemiside 5, read-out: Mean iv circulating concentration
  concentration at 1 h: 674 nM
[1]; male, C57/BL6, mouse, plasma, iv, 5 mg/kg, 1 h after iv 5 mg/kg artemisox 6, read-out: Mean iv circulating concentration
  concentration at 1 h: 663 nM
[1]; male, C57/BL6, mouse, plasma, iv, 5 mg/kg, 3 h after iv 5 mg/kg artemiside 5, read-out: Mean iv circulating concentration
  concentration at 3 h: 66 nM
[1]; male, C57/BL6, mouse, plasma, iv, 5 mg/kg, 3 h after iv 5 mg/kg artemisox 6, read-out: Mean iv circulating concentration
  concentration at 3 h: 7 nM
[1]; male, C57/BL6, mouse, plasma, iv, 5 mg/kg, 5 h after iv 5 mg/kg artemiside 5, read-out: Mean iv circulating concentration
  concentration at 5 h: 20 nM
[1]; male, C57/BL6, mouse, plasma, iv, 5 mg/kg, 5 h after iv 5 mg/kg artemisox 6, read-out: Mean iv circulating concentration
  concentration at 5 h: 7 nM
[1]; male, C57/BL6, mouse, plasma, iv, 5 mg/kg, 7 h after iv 5 mg/kg artemiside 5, read-out: Mean iv circulating concentration
  concentration at 7 h: 11 nM
[1]; male, C57/BL6, mouse, plasma, iv, 5 mg/kg, 24 h after iv 5 mg/kg artemiside 5, read-out: Mean iv circulating concentration
  concentration at 24 h: 5 nM
[1]; male, C57/BL6, mouse, plasma, iv, 5 mg/kg, iv 5 mg/kg, parent drug
  half-life: 25.8 ± 7.2 min
[1]; male, C57/BL6, mouse, plasma, po, 50 mg/kg, 0.08 h after po 50 mg/kg artemiside 5, read-out: Mean po circulating concentration
  concentration at 0.08 h: 1860 nM
[1]; male, C57/BL6, mouse, plasma, po, 50 mg/kg, 0.08 h after po 50 mg/kg artemisox 6, read-out: Mean po circulating concentration
  concentration at 0.08 h: 3040 nM
[1]; male, C57/BL6, mouse, plasma, po, 50 mg/kg, 0.25 h after po 50 mg/kg artemiside 5, read-out: Mean po circulating concentration
  concentration at 0.25 h: 2150 nM
[1]; male, C57/BL6, mouse, plasma, po, 50 mg/kg, 0.25 h after po 50 mg/kg artemisox 6, read-out: Mean po circulating concentration
  concentration at 0.25 h: 4210 nM
[1]; male, C57/BL6, mouse, plasma, po, 50 mg/kg, 0.5 h after po 50 mg/kg artemiside 5, read-out: Mean po circulating concentration
  concentration at 0.5 h: 2510 nM
[1]; male, C57/BL6, mouse, plasma, po, 50 mg/kg, 0.5 h after po 50 mg/kg artemisox 6, read-out: Mean po circulating concentration
  concentration at 0.5 h: 2150 nM
[1]; male, C57/BL6, mouse, plasma, po, 50 mg/kg, 1 h after po 50 mg/kg artemiside 5, read-out: Mean po circulating concentration
  concentration at 1 h: 2030 nM
[1]; male, C57/BL6, mouse, plasma, po, 50 mg/kg, 1 h after po 50 mg/kg artemisox 6, read-out: Mean po circulating concentration
  concentration at 1 h: 2010 nM
[1]; male, C57/BL6, mouse, plasma, po, 50 mg/kg, 3 h after po 50 mg/kg artemiside 5, read-out: Mean po circulating concentration
  concentration at 3 h: 286 nM
[1]; male, C57/BL6, mouse, plasma, po, 50 mg/kg, 3 h after po 50 mg/kg artemisox 6, read-out: Mean po circulating concentration
  concentration at 3 h: 13 nM
[1]; male, C57/BL6, mouse, plasma, po, 50 mg/kg, 5 h after po 50 mg/kg artemiside 5, read-out: Mean po circulating concentration
  concentration at 5 h: 7 nM
[1]; male, C57/BL6, mouse, plasma, po, 50 mg/kg, 5 h after po 50 mg/kg artemisox 6, read-out: Mean po circulating concentration
  concentration at 5 h: 5 nM
[1]; male, C57/BL6, mouse, plasma, po, 50 mg/kg, 7 h after po 50 mg/kg artemiside 5, read-out: Mean po circulating concentration
  concentration at 7 h: 5 nM
[1]; male, C57/BL6, mouse, plasma, po, 50 mg/kg, 7 h after po 50 mg/kg artemisox 6, read-out: Mean po circulating concentration
  concentration at 7 h: 4 nM
[1]; male, C57/BL6, mouse, plasma, po, 50 mg/kg, po 50 mg/kg, parent drug
  half-life: 32.4 ± 6 min
[1]; male, C57/BL6, mouse, plasma, iv 5 mg/kg
  clearance: 115 mL/min/kg
[1]; [3]
  AUC(0-inf): 2 ± 0.7 µM·h
  AUC(0-t): 2 ± 0.7 µM·h
[1]; male, C57/BL6, mouse, plasma, iv 5 mg/kg, parent drug, 0-last up to 7 h
  MRT last: 34.2 ± 2.4 min
[1]; male, C57/BL6, mouse, plasma, iv 5 mg/kg, read-out: Vss
  Vd: 4 ± 1.2 L/kg
[1]; male, C57/BL6, mouse, plasma, po 50 mg/kg vs iv 5 mg/kg, read-out: F (bioavailability)
  bioavailability: 16 ± 2%
[1]; [4]
  Cmax: 4500 ± 2300 nM
  MRT last: 41.4 ± 5.4 min
  AUC(0-t): 3.3 ± 1.4 µM·h
[1]; po 50 mg/kg
  MAT (mean absorption time = MRTpo–MRTiv): 7.8 ± 4.2 min
[1]; po group, parent drug
  quantifiable/detectable in plasma up to: up to 7 h
[2]
  IC50 at 24 h: > 50 µM
